Laboratory results published in patent publication EP1853270B1, “PHARMACEUTICAL COMPOSITIONS COMPRISING NEP-INHIBITORS, INHIBITORS OF THE ENDOGENOUS ENDOTHELIN PRODUCING SYSTEM AND DIURETICS” (Solvay Pharmaceuticals GmbH, priority 2005, dated 2006).

Tested on: spontaneously hypertensive rat
Assay: Telemetric monitoring of blood pressure and heart rate in spontaneously hypertensive rats, compounds given via drinking water
Type: in vivo
Conditions: male SHR; for DBP: group mean change of 24 h mean diastolic blood pressure; for DBP / HR / SBP: day 23 (3 weeks of treatment) minus baseline (day 3), via drinking water, intended 10 mg/kg/day hydrochlorothiazide and/or 100 mg/kg/day daglutril, n=5 per group; for HR: group mean change of 24 h mean heart rate; for SBP: group mean change of 24 h mean systolic blood pressure; for effect on blood pressure: result in words, 3 weeks of treatment via drinking water, difference between groups significant (ANOVA, at least P<0.01)
From the text: Male spontaneously hypertensive rats (= SHR, insulin resistant strain from Charles River; aged 6 months) were equipped with telemetry transmitters for continuous monitoring of blood pressure and heart rate (TA11PA-C40. DSI, USA). Telemetry transmitters for continuous monitoring of blood pressure, heart rate and locomotor activity (TA11PA-C40, Data Sciences, USA) were implanted intraabdominally under inhalative halothane anesthesia. A midline abdominal incision was made, and the abdominal aorta was visualized by removal of retroperitoneal fat and connective tissue. A ligature was placed caudal of the renal arteries, the aorta was punctured with a 22G needle, and the catheter was advanced into the aorta. The entry point was sealed with tissue adhesive (Vetbond, 3M, USA), the ligature was removed, and the abdominal incision was closed. Measurements of aortic pressure were taken every 5 minutes (= min) for 4 seconds (= s) each at a sampling rate of 500 Hz, and were corrected for the corresponding ambient pressure (ambient pressure monitor, C11 PR, Data Sciences, USA).
After 3 days of monitoring under baseline (untreated) conditions, animals received daglutril via the drinking water. The intended daily dose was 100 mg/kg/day of daglutril.
In a second experiment, rats were divided into two treatment groups receiving hydrochlorothiazide or hydrochlorothiazide + daglutril. Compounds were administered via the drinking water, and daily drug intake was measured by weighing the water bottles thrice weekly. Intended daily doses were 10 mg/kg/day of hydrochlorothiazide plus, in the combination group, 100 mg/kg/day of daglutril.
Concentrations of hydrochlorothiazide and daglutril in the drinking water were adjusted once per week, in order to ensure the intended daily intake of 10 and 100 mg/kg, respectively.
The blood pressure, heart rate and activity values, sampled in 5 min intervals by the Dataquest™ system, were used for calculation of individual 24 hours (= h) -means. These 24 h means were exported to Excel, and group mean values of systolic blood pressure (= SBP), diastolic blood pressure (= DBP), heart rate (= HR), and locomotor activity (= ACT) were calculated for the daglutril, hydrochlorothiazide and the hydrochlorothiazide + daglutril groups. For the statistical analysis, a baseline value (pre) was calculated from the last day prior to compound application (day 3), and effects of daglutril, hydrochlorothiazide and hydrochlorothiazide + daglutril were calculated in relation to this baseline value (day 23, i.e. after 3 weeks of treatment, minus baseline value). The statistical comparison was done by using univariate ANOVA at an error level of P<0.05.

| Structure (SMILES) | DBP | HR | SBP | effect on blood pressure |
| --- | --- | --- | --- | --- |
| CCOC(=O)[C@H](CCc1ccccc1)CC1(C(=O)N[C@H]2CCc3ccccc3N(CC(=O)O)C2=O)CCCC1 [daglutril] | 2.0 mmHg | -6.0 min⁻¹ | -0.3 mmHg | no effect on blood pressure |
| NS(=O)(=O)c1cc2c(cc1Cl)NCNS2(=O)=O [HCTZ, hydrochlorothiazide] | -7.7 mmHg | -4.5 min⁻¹ | -11.3 mmHg | moderate decrease in blood pressure |
